Laboratory results taken from patent publication US10293004B2, “Butyrate-producing bacterium and use thereof” (KABUSHIKI KAISHA YAKULT HONSHA, priority 2014, dated 2019).

Tests used:
[1] = Turbidity (OD660) after anaerobic culture of bacterial strains in PYGA, PYSA or PYXA medium
Experimental: (§1) A frozen stock solution of each bacterial strain (a 10% (w/v) skim milk-2% sodium glutamate solution in which bacterial cells were suspended) (cell count: 2.0 to 5.5×10^10 cells/mL) was thawed, and the solution was inoculated at 1% to 4 mL of a PY liquid medium supplemented with 33 mM sodium acetate and 0.5 (w/v) % glucose (PYGA medium), followed by anaerobic culture at 37° C. for 24 hours. After the culture, the culture solution was inoculated at 1% to a fresh PYGA medium, followed by anaerobic culture at 37° C. for 24 hours. After the culture, the turbidity (OD660) of the culture solution was measured. Then, the culture solution was inoculated at 1% to a PY medium containing 0.5 (w/v) % L-sorbose or D-xylitol and 33 mM sodium acetate (the medium containing L-sorbose: PYSA, and the medium containing D-xylitol: PYXA), followed by anaerobic culture at 37° C. for 24 hours. Then, the turbidity (OD660) was measured.

[2] = Production of butyrate by each bacterial strain from L-sorbose and D-xylitol (ion-exclusion HPLC); conditions: 24 hours, minus PYA blank
Experimental: as §1
After the completion of the culture, the organic acid concentration in the culture solution was quantified by ion-exclusion HPLC. In this operation, a culture solution in a PY medium supplemented with sodium acetate but without L-sorbose or D-xylitol (PYA medium) was used as a blank.
(HPLC Analysis Conditions) • Eluent: 15 mM perchloric acid-7% acetonitrile • pH adjuster: 15 mM perchloric acid-60 mM • tris(hydroxymethyl)aminomethane-7% acetonitrile • Separation column: Organic acid analysis column RSpak KC- • 811×2 (manufactured by Showa Denko K.K.) • Column temperature: 42° C. • Injected sample volume: 10 μL • Flow rate: 1.0 mL/min • Analysis time: 35 min • Detector: Waters 432 electric conductivity detector • Cell temperature: 45° C.
The amount of butyrate produced was calculated according to (Expression 1). Amount of butyrate produced=(Amount of butyrate produced by culture for 24 hours in a PYSA or PYXA medium)−(Amount of butyrate produced by culture for 24 hours in a PYA medium) (Expression 1)

[3] = Amount of butyrate produced by culture in PYA medium supplemented with acetate and lactate; conditions: PYA medium (33 mM sodium acetate) with 40 mM sodium lactate, 37° C. 24 hours, minus PYA without lactate
Experimental: Each bacterial solution cultured in a PYGA liquid medium under the same conditions as those described in the preceding paragraph 1) was inoculated at 1% to a PYA medium containing 33 mM sodium acetate and further supplemented with 40 mM sodium lactate, followed by anaerobic culture at 37° C. for 24 hours. After the completion of the culture, the organic acid concentration in the culture solution was analyzed by ion-exclusion HPLC. The analysis conditions were the same as those described in the preceding paragraph 1). The amount of butyrate produced was calculated according to (Expression 2). Amount of butyrate produced=(Amount of butyrate produced by culture for 24 hours in a PYA medium supplemented with 40 mM sodium lactate)−(Amount of butyrate produced by culture for 24 hours in a PYA medium without 40 mM sodium lactate) (Expression 2)

[4] = Biochemical properties: enzymatic activity (API-ZYM, Rapid ID32A API, API KENKI 20A); set-up: key: +: positive reaction; −: negative reaction; +^w: weak reaction
From the text: (§2) Commercially available API-ZYM, Rapid ID32A API, and API KENKI 20A (SYSMEX bioMerieux Co., Ltd.) were used in the testing of biochemical properties of various bacterial strains. The testing method followed the product manuals.

[5] = Biochemical properties: saccharide fermentability (API-ZYM, Rapid ID32A API, API KENKI 20A); set-up: key: +: positive reaction; −: negative reaction; +^w: weak reaction
From the text: as §2

[6] = Evaluation of ability to produce butyrate from indigestible saccharides (Example 3)
From the text: Galactooligosaccharide (GOS), maltitol, D-mannitol, lactitol, isomalt, isomaltulose, L-sorbose and D-sorbitol were used as indigestible saccharides. These indigestible saccharides used, except for GOS, were reagent grade. GOS used was commercially available Oligomate 55N (Yakult Pharmaceutical Industry Co., Ltd.) from which monosaccharide and lactose fractions (fractions digestible and absorbable by the upper gastrointestinal tract) had been removed using an activated carbon column. Specifically, a saccharide solution diluted with purified water was added to a column packed with activated carbon (manufactured by Wako Pure Chemical Industries, Ltd.) swollen in purified water, and the column was washed with a 2% ethanol solution, followed by the elution of an indigestible fraction with a 50% ethanol solution. The eluate was dried under reduced pressure, and the obtained GOS saccharide solution was used.
A. hadrus YIT 10092^T (DSM 3119^T), which is a type strain of A. hadrus (a typical human intestinal butyrate-producing bacterium), and two isolates were used.
Each of these bacterial strains was anaerobically cultured at 37° C. for 24 hours in a PYA medium containing 33 mM sodium acetate supplemented with 0.5% D-glucose (PYGA medium). The culture solution was inoculated at 1% to a PYA medium containing 0.5 (w/v) % of each indigestible saccharide (test medium), followed by anaerobic culture at 37° C. for 24 hours. After the completion of the culture, the organic acid concentration in the culture solution was analyzed by ion-exclusion HPLC. The analysis conditions were the same as those described above in Example 2. After the quantification of the organic acid concentration, the amount of butyrate produced from each indigestible saccharide and the ratio of butyrate to total short-chain fatty acids were calculated according to the following expressions. (Amount of butyrate produced)=(Amount of butyrate in the test medium after culture)−(Amount of butyrate in a PYA medium without each indigestible saccharide after culture) (Ratio of butyrate)=(Amount of butyrate in the test medium after culture)/((Amount of acetate+Amount of propionate+Amount of butyrate) in the test medium after culture)×100 (Expression 3)

A. hadrus (Eubacterium hadrum) YIT 12354 (NITE BP-01831)
Turbidity (OD660) ([1]; after anaerobic culture at 37° C. for 24 hours in PYGA liquid medium): 2.76
Turbidity (OD660) ([1]; anaerobic culture at 37° C. for 24 hours of 1% inoculum in PYSA (L-sorbose)): 2.26
Turbidity (OD660) ([1]; anaerobic culture at 37° C. for 24 hours of 1% inoculum in PYXA (D-xylitol)): 1.09
Amount of butyrate produced ([2]; D-Xylitol 0.5 (w/v) %, PYXA medium): 31.0 mmol/L
Amount of butyrate produced ([2]; L-Sorbose 0.5 (w/v) %, PYSA medium): 14.8 mmol/L
Amount of butyrate produced [3]: 16.5 mmol/L
Acid phosphatase [4]: +
Alkaline phosphatase [4]: +
Esterase (C4) [4]: −
Naphthol-AS-B1-phosphohydrolase [4]: +
α-Glucosidase [4]: −
β-Galactosidase [4]: +
β-Galactosidase-6-phosphate [4]: −
Aesculin [5]: −
D-Cellobiose [5]: −
D-Mannitol [5]: +
D-Raffinose [5]: +^w
D-Xylose [5]: +
Glycerol [5]: −
L-Arabinose [5]: +
L-Rhamnose [5]: −
L-Sorbitol [5]: +
Mallose [5]: +^w
Salicin [5]: −
ability to utilize indigestible saccharides ([6]; PYA medium with 0.5 (w/v) % of each indigestible saccharide, versus type strain, FIGS. 3 and 4): more than the type strain YIT 10092^T
Amount of butyrate produced ([6]; from indigestible saccharides, versus type strain, FIG. 3): larger
ratio of butyrate to total short-chain fatty acids ([6]; versus type strain YIT 10092^T, FIG. 4): higher than that of the type strain YIT 10092^T
